Experiments:
[1] = tested on: MDA-MB-231 (breast) cancer cells; experiment: MTT cytotoxicity test, 72 h, MDA-MB-231; type: cell-based, human; details: mean ± S.D.
Protocol: (§1) The in vitro anticancer potential of the newly developed complexes and of the ligands has been tested on six different cancer cell lines including PSN-1 (pancreatic), HCT-15 (colorectal with low sensitivity for cisplatin), 2008 (ovarian), A431 (cervical), MDA-MB-231 (breast), and U1285 (lung) cancer cells. For comparison purposes, cisplatin efficacy was assessed under the same experimental conditions.
(§2) Tested compounds were dissolved in DMSO and added to the cell-growth medium to a final solvent concentration of 0.5%, which is well reported to not have cytotoxic effects on cell viability. Cisplatin (Sigma Chemical Co., St. Louis, MO, USA) was dissolved in a physiologic solution (0.9% sodium chloride).
(§3) Human colon (HCT-15), pancreatic (PSN-1), and breast (MDA-MB-231) carcinoma-cell lines were obtained from the American Type Culture Collection (ATCC, Rockville, MD). Human cervical carcinoma (A431) cells were kindly provided by Prof. F. Zunino (Division of Experimental Oncology B, Istituto Nazionale dei Tumori, Milan). Human ovarian carcinoma (2008) cells and their cisplatin-resistant counterpart (C13*) were kindly provided by Prof. G. Marverti (Dipartimento di Scienze Biomediche, Università di Modena University, Italy). Cell lines were cultured in RPMI-1640 or DMEM medium (Euroclone) added with 10% fetal calf serum (Euroclone, Milan, Italy), antibiotics (50 units per mL penicillin, and 50 μg mL^−1 streptomycin), and 2 mM L-glutamine.
(§4) The growth inhibitory effect toward the tumour cell lines was evaluated by the MTT test as previously described.

[2] = tested on: six different cancer cell lines; experiment: MTT cytotoxicity, average over the cancer cell line panel; type: cell-based, human; details: 2D assays, average over the cancer cell lines of Table 1
Protocol: as §1
Due to note, all the complexes were very effective in the MDA-MB-231 cell line, which overexpress the SMVT (sodium-dependent multivitamin transporter) receptor, which is well known to be involved in the intracellular translocation of biotin [24].
as §4

[3] = tested on: MDA-MB-231 cells; details: 24 h, 2 and 3 μM
Protocol: The ability to enter cancer cells is a very important factor to determine the biological activity of metal-based compounds. Consequently, with the aim of correlating the antiproliferative activity elicited by all the newly developed complexes and their accumulation profiles into cancer cells, the Cu content was evaluated in the SMVT overexpressing MDA-MB-231 cells. Uptake profiles were determined by treating cancer cells for 24 h with two concentrations (2 and 3 μM) of tested complexes.
MDA-MB-231 cells (2.5 × 10^6) were seeded in 75 cm^2 flasks in a growth medium (20 mL). Following 24 h, cells were treated for 24 h with tested complexes and samples processed as previously described.
Figure 2 Cellular uptake of complexes 1–4 in drug-treated MDA-MB-231 human breast cancer cells. Cells were incubated for 24 h with […] of tested complexes. The amount of cellular Cu was estimated by GF-AAS. Error bars are S.D.

[4] = tested on: A431 (cervical) cancer cells; experiment: MTT cytotoxicity test, 72 h, A431; type: cell-based, human; details: mean ± S.D.
Protocol: as §1, §2, §3, §4

[5] = target: T1, protein disulphide isomerase (PDI) (Homo sapiens, UniProt P07237); experiment: PDI reductase activity (PROTEOSTAT PDI assay kit); type: biochemical; details: 25 µM of complex
T1 construct: purchased Enzo Life Sciences, Lausen, Switzerland
T1 sequence (P07237 18-508): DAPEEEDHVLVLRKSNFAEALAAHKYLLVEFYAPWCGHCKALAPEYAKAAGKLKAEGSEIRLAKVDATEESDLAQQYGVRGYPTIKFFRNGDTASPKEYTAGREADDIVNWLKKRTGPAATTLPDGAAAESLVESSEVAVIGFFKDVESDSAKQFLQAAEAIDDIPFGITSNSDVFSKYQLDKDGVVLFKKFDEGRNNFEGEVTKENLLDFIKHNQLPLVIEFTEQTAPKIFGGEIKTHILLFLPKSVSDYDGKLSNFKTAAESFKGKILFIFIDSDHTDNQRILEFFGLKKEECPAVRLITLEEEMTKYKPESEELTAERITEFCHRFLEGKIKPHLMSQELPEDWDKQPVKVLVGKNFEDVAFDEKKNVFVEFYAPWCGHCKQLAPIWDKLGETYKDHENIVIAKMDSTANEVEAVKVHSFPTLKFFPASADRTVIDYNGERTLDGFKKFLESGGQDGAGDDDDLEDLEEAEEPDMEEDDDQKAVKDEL
Protocol: MDA-MDB-231 cells were exposed for 3 h to 4 μM of tested compounds or 200 µM of the reference drug chlorambucil. […] On the other hand, some reports highlighted protein disulphide isomerase (PDI) as an emerging target for copper complexes.
The reductase activity of PDI was assayed by measuring the PDI-catalysed reduction of insulin in the presence of increasing concentrations of the tested compounds by using the PROTEOSTAT PDI assay kit (Enzo Life Sciences, Lausen, Switzerland). Experiments were performed according to the manufacturer’s instructions as previously described. IC50 values were calculated by the 4-PL model.
Figure 4 Mechanistic studies. (A) Comet assay: MDA-MDB-231 cells were treated for 3 h with 4 μM of tested compounds 2 and 4 or 200 µM of the reference drug chlorambucil. […] The PDI inhibitor Bacitracine (0.5 mM) was used as a positive control.

[6] = tested on: genomic DNA of MDA-MB-231 cells; details: 3 h; for cells with lesioned genomic DNA (comets): 4 μM, fraction of treated cells
Protocol: As proof of the principle of their DNA-targeting ability, the alkaline single-cell gel electrophoresis (Comet assay, Figure 4) assay was performed to evaluate cellular genomic DNA lesions induced by tested complexes. […] MDA-MDB-231 cells were exposed for 3 h to 4 μM of tested compounds or 200 µM of the reference drug chlorambucil. Figure 4A depicts the relative percentage of comets and the number of cells forming a comet relative to the total number of detected cells per each condition in two randomly captured fields from two independent experiments. […] On the other hand, some reports highlighted protein disulphide isomerase (PDI) as an emerging target for copper complexes. On this basis, we also evaluated the ability of our complexes to act as PDI inhibitors. The enzyme was treated with 25 µM of complexes 2 and 4, and the ability to hamper its activity was assessed by a biochemical colourimetric method (Proteostat kit).
About 3 × 10^4 MDA-MB-231 cells were seeded in 25 cm^2 flasks in a growth medium. After overnight incubation, cells were treated for 3 h with […] of tested compounds and processed as previously described. Pictures were captured with a Zeiss LSM-800 confocal microscope (Zeiss, Oberkochen, Germany). All photos were analyzed by the Zen 2.3 system (Zeiss, Oberkochen, Germany).
Figure 4 Mechanistic studies. (A) Comet assay: MDA-MDB-231 cells were treated for 3 h with 4 μM of tested compounds 2 and 4 or 200 µM of the reference drug chlorambucil. The relative percentage of comets (number of cells forming a comet/total number of cells) was detected in two randomly captured fields from two independent experiments. (B) PDI inhibition induced by tested compounds was measured by Proteostat PDI assay kit. The PDI inhibitor Bacitracine (0.5 mM) was used as a positive control. Error bars indicate S.D. ** p < 0.01 compared with control.

[7] = tested on: 2008 (ovarian) cancer cells; experiment: MTT cytotoxicity test, 72 h, 2008; type: cell-based, human
Protocol: as §1
Table 2 reported the IC50 values of the complexes against two types of ovarian cancer cells, one sensitive (2008) and one resistant to cisplatin (C13*). […] The resistance factor (R.F., the ratio among IC50 values obtained in resistant C13*cells and those calculated in the sensitive 2008 ones) calculated for all tested complexes resulted to be ≤2 (R.F. for cisplatin 11.1), strongly confirming the ability of the complexes to bypass cisplatin resistance.
as §2, §3, §4

[8] = tested on: MDA-MB-231 cells; details: 3 μM, 24 and 48 h
[9] = Table 2, cisplatin-sensitive parental cells

In the case of `O=C(CCCC[C@@H]1SC[C@@H]2NC(=O)N[C@@H]21)NN=C1C(=O)c2ccc[n+]3c2-c2c1ccc[n+]2[Cu-2]31[n+]2cccc3ccc4ccc[n+]1c4c32.O=[N+]([O-])[O-].O=[N+]([O-])[O-]` [Complex 4, [Cu(phen)(phendione-biotin)](NO3)2], the IC50 [1] is reported as 600 ± 100 nM, the IC50 [2] is reported as 800 nM and the “Cu intracellular content (uptake)” value [3] is reported as “most internalised into cancer cells”. For the same molecule, the IC50 [4] was 300 ± 30 nM, the PDI inhibition [5] was 15% and the “DNA damaging efficacy compared with chlorambucil” value ([6]; 4 μM compound vs 200 µM chlorambucil) was “much higher than that induced by the reference compound chlorambucil”. The “cells with lesioned genomic DNA (comets)” value [6] was “one third”, the IC50 ([7]; Table 1, mean ± S.D.) was 600 ± 200 nM and the IC50 [7, 9] was 600 ± 200 nM. The “apoptosis induction (Hoechst staining)” value [8] was “morphological features typical of cells undergoing apoptosis”.

With `O=C(CCCC[C@@H]1SC[C@@H]2NC(=O)N[C@@H]21)NN=C1C(=O)c2ccc[n+]3c2-c2c1ccc[n+]2[Cu-2]3([Cl])[Cl]` [Complex 2, [Cu(phendione-biotin)Cl2]] the IC50 [1] was 1400 ± 100 nM, the IC50 [4] was 1200 ± 500 nM and the PDI inhibition [5] was 45%. The “cells with lesioned genomic DNA (comets)” value [6] was “at least one fourth”, the IC50 ([7]; Table 1, mean ± S.D.) was 1100 ± 300 nM and the IC50 [7, 9] was 1100 ± 300 nM.
